In brackets after ≈: the same amount, converted by molar mass.
Legend:
CYP2D6 = CYP2D6 (Homo sapiens (Human), UniProt P10635); test: Human Cytochrome P450 Inhibition Assay (Bactosomes); format: in vitro ADME; conditions: recombinant Bactosomes, 10 minutes
Experimental: (§1) The ability of test compounds to inhibit five of the most relevant cytochrome P450 enzymes was measured by determination of the activity of cytochrome P450 enzymes in recombinant cytochrome preparations, called Bactosomes (Cypex Ltd, Dundee, Scotland UK DD2 1 NH), in the presence of a specific probe substrate. Bactosomes are a highly efficient and cost-effective source of recombinant CYP450s which have a higher specific activity of enzyme compared to other sources, such as liver microsomes. […] The following CYP450 isoforms were assayed: CYP1A2, CYP2C9, CYP2C19, CYP2D6 and CYP3A4. The study of CYP450 inhibition potential in Bactosomes is accepted as a valuable model permitting rapid prediction of potential drug-drug interactions in vivo (see, e.g., Weaver et al., 2003).
(§2) Bactosomes were obtained from a commercial source (Cypex, Scotland, UK). Test compounds were incubated with Bactosomes at 6 concentrations. Samples were incubated for 10 minutes, after which the reaction was stopped and the samples analysed by LC-MS/MS Multiple Reaction Monitoring (MRM) for the presence/amount of substrate probe.
(§3) CYP450 enzymes (final protein 75 pmol/mL for CYP1A2; 12.5 pmol/mL for CYP2C19; and 25 pmol/mL for CYP2C9, 2D6 and 3A4), 0.1 M phosphate buffer pH 7.4, probe and test compound (final concentration 50, 15.8, 5, 1.58, 0.5 and 0.158 μM; diluted from 10 mM stock solution to give a final DMSO concentration of 1%) were pre-incubated at 37° C. for 5 minutes. The reaction was initiated by the addition of 20 μL of 10 mM NADPH in phosphate buffer. The final incubation volume was 200 μL. The following control inhibitors were used for each CYP450 inhibition assay: CYP1A2: α-naphthoflavone; CYP2C9: sulfaphenazole; CYP2C19: tranylcypromine; CYP2D6: quinidine; CYP3A4: ketoconazole.
(§4) Each compound was incubated for 10 minutes at 37° C. The reactions were stopped by the addition of methanol (final composition 1:1, aqueous: methanol). The incubation plates were shaken, chilled at […] for 2 hours, and centrifuged at 3500 rpm for 15 minutes at 4° C. to precipitate the protein.

CYP3A4 = CYP3A4 (Homo sapiens (Human), UniProt P08684); test: as above; format: in vitro ADME; conditions: recombinant Bactosomes, 10 minutes
Experimental: as §1, §2, §3, §4

CYP2C19 = CYP2C19 (Homo sapiens (Human), UniProt P33261); test: as above; format: in vitro ADME; conditions: recombinant Bactosomes, 10 minutes
Experimental: as §1, §2, §3, §4

CYP2C9 = CYP2C9 (Homo sapiens (Human), UniProt P11712); test: as above; format: in vitro ADME; conditions: recombinant Bactosomes, 10 minutes
Experimental: as §1, §2, §3, §4

CYP1A2 = CYP1A2 (Homo sapiens (Human), UniProt P05177); test: as above; format: in vitro ADME; conditions: recombinant enzyme
Experimental: as §1, §2, §3, §4

[1] = Rodent Pharmacokinetics Studies; format: in vivo, rat; conditions: rats
Source text: Absorption and metabolic stability were studied using an in vivo pharmacokinetics assay.
[…] Test compounds were formulated in 0.5% carboxymethylcellulose (CMC)/0.1% Tween-80 for administration via the oral route, or in 5% DMSO/10% solutol in saline for administration via the intravenous route. For compound HMC-C-01-A the oral administration was formulated in 2% dimethylacetamide/20% hydroxypropyl-β-cyclodextrin in water. Animals were given free access to food throughout the study except for fasting overnight and until 2 hours post dose on the day of dosing.
Blood samples were taken from the retro-orbital plexus at the following time points and placed in microtubes containing 20% K2EDTA solution:
Oral Dosing: predose; 0.25, 0.5, 1, 2, 4, 6, 8, 12 and 24 hours post dose.
Blood samples were centrifuged to obtain plasma, which was transferred to a separate container and frozen at −20° C.
For analysis, samples were thawed at room temperature and prepared by protein precipitation with acetonitrile spiked with internal standard (500 ng/mL glipizide) in the ratio 1:4 with plasma.
The pharmacokinetic parameters for the test compounds were calculated by Phoenix WinNonlin version 8.0 (Certara, CA) using standard non-compartmental methods. Peak plasma concentrations (Cmax) and time of the peak plasma concentration (Tmax) were the observed values. The area under the plasma concentration-time curve (AUC) was determined by use of the linear trapezoidal rule up to the last measurable concentration (AUClast) and thereafter by extrapolation of the terminal elimination phase to infinity (AUCinf). The elimination phase half-life (t1/2) was calculated as 0.693/kel.

hERG ion channel = hERG ion channel (Homo sapiens (Human), UniProt Q12809); test: hERG Ion Channel binding assay (3H astemizole displacement)
Experimental: (§5) The activity of the compounds against the hERG ion channel was tested using a binding assay in stably transfected Human Embryonic Kidney cells (hERG-HEK293). hERG-HEK293 cells were cultured in MEM medium (Invitrogen)+10% FBS, glutamine and non-essential amino acids at 37° C. To prepare membranes, cells were homogenised on ice, centrifuged at 650×g for 10 minutes at +4° C., and the resulting supernatant centrifuged at 48000×g for 10 minutes at +4° C. The pellet was resuspended in ice-cold 50 mM Tris-HCl buffer, 5 mM KCl (pH 8.5) and stored frozen in aliquots until use.
(§6) For binding assays, membranes were thawed, re-suspended in assay buffer (10 mM HEPES pH 7.4, 0.1% BSA, 5 mM potassium chloride, 0.8 mM magnesium chloride, 130 mM sodium chloride, 1 mM sodium-EGTA, 10 mM glucose) and incubated with ^3H astemizole (1.5 nM), and with or without test compound at 25° C. for 60 minutes. Binding was determined following filtration of the membranes and washing in Tris-HCl buffer by scintillation counting of ^3H astemizole.
(§7) The degree of binding of compounds to the hERG ion channel (%) was obtained by measuring the binding of ^3H astemizole and its displacement by test compound. A value of 0% indicates no binding and a value of 100% indicates complete displacement of the radiolabelled ligand.

hERG = hERG (Homo sapiens (Human), UniProt Q12809); test: as above; conditions: human, membranes of HEK293 cells stably expressing hERG, pH 7.4, probe 3H astemizole (1.5 nM); 30 μM; displacement of 3H astemizole, hERG-HEK293 membranes
Experimental: as §5, §6, §7

[2] = tested on: Thp1 human monocytic cells; test: Thp1 Monocyte ATP Production Assay (ATPlite); format: cell-based; conditions: Homo sapiens, THP-1; Thp1 cells, 24 hour incubation; 9-point concentration range from 10 μM to 10 nM; mean of 2 independent experiments
Experimental: In vitro potency of test compounds was determined by incubation with Thp1 human monocytic cells and subsequent determination of Adenosine TriPhosphate (ATP) levels using firefly luciferase.
ATP is present in all metabolically active cells. When cells lose integrity, their ability to synthesise ATP is rapidly lost. […] See, e.g., Kang et al., 2015; Jiang et al., 2013. Levels of ATP can be monitored using a system based on firefly (Photinus pyralis) luciferase (see, e.g., Auld et al., 2009) using commercially available kits. A system known as ATPlite™ was using to measure effects of the test compounds on cellular viability in vitro. This one-step assay system is an adenosine triphosphate (ATP) monitoring system based on the production of light caused by the reaction of ATP from the cells with added luciferase and D-luciferin, as illustrated in the reaction scheme below:
Thp1 cells were plated at 112500 cells per well in 125 μL RPMI-1640 (no glucose) with 1% FBS in 96-well plates. Test compounds were prepared as 100 mM solutions in DMSO. These stock solutions were diluted in DMSO and then diluted 1000× in culture medium (RPMI) before being added directly to the wells so as to give the desired final compound concentration. After a 24 hour incubation at 37° C./5% CO2, ATPLite™ (Perkin Elmer) was added to each well (1:10 v/v, 10 μL). The plate was then incubated at room temperature for 5 minutes and the emitted light was quantified on Viewlux with a measurement time of 0.3 seconds and binning 4×4.
The average results for each test compound were expressed as a percent (%) of the average control value reflecting cell viability. The average values across the concentrations tested were then plotted and the IC50 for was calculated by fitting the data to a 4-parameter IC50 equation using software from Graf it (Erithacus Software). Each experiment was repeated twice and the data are presented as the mean IC50 from both experiments.

[3] = Aqueous solubility in FaSSIF; format: physicochemical
Experimental: Aqueous solubility was measured by equilibration of compounds with fasted state simulated intestinal fluid (FaSSIF) and quantified spectrophotometrically.
Preparation of blank FaSSIF: 0.21 g of sodium hydroxide (NaOH) pellets, 1.97 g of dihydrogen sodium phosphate (NaH2PO4.2H2O) and 3.09 g of sodium chloride (NaCl) were dissolved in 400 mL of deionised water. The pH was adjusted to 6.5 using 1 M hydrochloric acid and further deionised water added to a final volume of 500 mL.
Preparation of FaSSIF: 0.056 g of SIF Powder (containing sodium taurocholate and lecithin) (Pharses A G) was dissolved in 25 mL of blank FaSSIF and stirred until the powder was completely dissolved. The solution was allowed to stand for 2 hours during which it became opalescent; it was used within 24 hours. The final solution composition was characterised as follows: • Sodium taurocholate: 3 mM • Lecithin: 0.75 mM • Osmolarity: 270±10 mOsmol • pH: 6.5
The optical density was measured at the end of the incubation period for test compounds and a reference used to determine solubility. In brief, two samples were prepared for each determination: a reference sample consisting of a stock solution of test compound in DMSO diluted in system solution (a phosphate free, low absorption buffer) and propanol; and a test sample (prepared in triplicate) consisting of 0.5 mL FaSSIF spiked with test compound at 0.2 mM. Each sample was incubated at room temperature for 16 hours with constant shaking at 250 rpm. At the end of the incubation period, 0.3 mL of each sample was filtered through a pION filter plate (PION, Woburn MA), diluted 1:1 with propanol and scanned using UV spectrophotometry at Amax ([…]) using a Spectra Max Plus—Version 2.1000 (Molecular Devices, Sunnyvale, CA), with pSOL Explorer solubility determination software (pION, Woburn, MA).
FaSSIF solubility was calculated using the following formula:
[formula] • wherein: • “OD” is the optical density; • “Cr” is the concentration of the reference (33.4 μM); and • “molecular weight” is for the test compound (e.g., 381.44 for ABD735).

CYP3A4, sequence (P08684 whole entry): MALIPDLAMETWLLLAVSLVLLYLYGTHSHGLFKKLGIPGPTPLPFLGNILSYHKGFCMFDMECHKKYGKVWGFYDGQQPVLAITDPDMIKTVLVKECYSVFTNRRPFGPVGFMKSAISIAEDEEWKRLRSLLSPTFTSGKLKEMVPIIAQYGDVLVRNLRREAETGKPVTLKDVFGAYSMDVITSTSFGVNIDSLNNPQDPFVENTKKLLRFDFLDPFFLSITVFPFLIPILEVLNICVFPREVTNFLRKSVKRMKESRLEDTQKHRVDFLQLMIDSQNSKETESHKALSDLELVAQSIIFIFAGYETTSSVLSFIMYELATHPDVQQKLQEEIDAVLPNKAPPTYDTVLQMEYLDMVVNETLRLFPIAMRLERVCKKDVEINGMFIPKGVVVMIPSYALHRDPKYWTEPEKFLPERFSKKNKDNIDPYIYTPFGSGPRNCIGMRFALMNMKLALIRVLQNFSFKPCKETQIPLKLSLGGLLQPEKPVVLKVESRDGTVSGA
CYP2C9, sequence (P11712 whole entry): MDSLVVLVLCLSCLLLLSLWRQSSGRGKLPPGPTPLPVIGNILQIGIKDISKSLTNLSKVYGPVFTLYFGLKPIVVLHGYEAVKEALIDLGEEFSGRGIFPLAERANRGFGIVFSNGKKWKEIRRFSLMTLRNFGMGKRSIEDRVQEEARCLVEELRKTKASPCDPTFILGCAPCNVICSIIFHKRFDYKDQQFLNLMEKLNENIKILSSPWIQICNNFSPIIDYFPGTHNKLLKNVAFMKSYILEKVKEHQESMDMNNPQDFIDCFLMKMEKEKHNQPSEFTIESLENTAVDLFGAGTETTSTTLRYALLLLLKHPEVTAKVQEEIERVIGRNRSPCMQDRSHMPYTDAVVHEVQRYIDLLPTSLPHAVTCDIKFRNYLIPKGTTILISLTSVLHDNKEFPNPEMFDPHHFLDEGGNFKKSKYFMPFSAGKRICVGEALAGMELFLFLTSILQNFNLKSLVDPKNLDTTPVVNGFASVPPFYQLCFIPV
CYP2D6, sequence (P10635 whole entry, canonical isoform): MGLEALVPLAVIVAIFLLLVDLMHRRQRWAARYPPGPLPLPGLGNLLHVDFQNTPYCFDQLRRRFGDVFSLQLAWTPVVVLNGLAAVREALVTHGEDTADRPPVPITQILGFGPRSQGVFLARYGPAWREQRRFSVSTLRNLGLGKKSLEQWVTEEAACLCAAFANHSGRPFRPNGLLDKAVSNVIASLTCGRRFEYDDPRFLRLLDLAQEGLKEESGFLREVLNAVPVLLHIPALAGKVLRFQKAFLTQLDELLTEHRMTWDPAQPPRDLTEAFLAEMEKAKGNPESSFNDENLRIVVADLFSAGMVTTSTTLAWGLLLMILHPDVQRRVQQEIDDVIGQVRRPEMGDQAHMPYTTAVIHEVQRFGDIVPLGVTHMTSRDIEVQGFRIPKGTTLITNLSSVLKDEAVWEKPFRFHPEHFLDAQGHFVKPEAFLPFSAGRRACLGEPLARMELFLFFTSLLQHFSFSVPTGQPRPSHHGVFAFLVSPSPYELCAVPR
CYP1A2, sequence (P05177 whole entry): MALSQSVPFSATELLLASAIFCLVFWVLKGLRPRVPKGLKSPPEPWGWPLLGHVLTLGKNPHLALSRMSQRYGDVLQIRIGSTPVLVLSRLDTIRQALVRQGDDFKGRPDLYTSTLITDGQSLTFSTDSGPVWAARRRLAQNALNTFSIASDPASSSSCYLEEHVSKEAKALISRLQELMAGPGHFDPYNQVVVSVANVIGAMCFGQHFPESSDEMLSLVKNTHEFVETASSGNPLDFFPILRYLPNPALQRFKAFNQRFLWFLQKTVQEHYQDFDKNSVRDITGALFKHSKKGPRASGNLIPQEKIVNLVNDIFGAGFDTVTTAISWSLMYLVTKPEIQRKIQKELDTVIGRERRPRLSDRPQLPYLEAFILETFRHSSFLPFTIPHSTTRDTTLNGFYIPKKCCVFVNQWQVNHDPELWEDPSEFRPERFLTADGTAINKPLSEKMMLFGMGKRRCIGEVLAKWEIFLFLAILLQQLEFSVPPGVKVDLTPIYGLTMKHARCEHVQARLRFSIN
CYP2C19, sequence (P33261 whole entry): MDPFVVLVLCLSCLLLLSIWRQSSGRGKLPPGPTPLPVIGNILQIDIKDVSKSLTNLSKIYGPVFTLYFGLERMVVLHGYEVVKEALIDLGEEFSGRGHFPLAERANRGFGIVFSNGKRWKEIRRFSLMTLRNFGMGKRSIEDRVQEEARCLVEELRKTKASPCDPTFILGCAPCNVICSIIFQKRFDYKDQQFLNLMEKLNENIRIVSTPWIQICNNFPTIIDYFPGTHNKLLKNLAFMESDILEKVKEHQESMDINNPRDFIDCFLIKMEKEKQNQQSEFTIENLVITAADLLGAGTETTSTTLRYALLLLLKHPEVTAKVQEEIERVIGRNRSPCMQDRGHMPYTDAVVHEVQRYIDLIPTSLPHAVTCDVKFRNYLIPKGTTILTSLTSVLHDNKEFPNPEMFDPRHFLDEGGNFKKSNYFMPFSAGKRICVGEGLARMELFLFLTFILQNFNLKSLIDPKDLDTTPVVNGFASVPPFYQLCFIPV
hERG, sequence (Q12809 whole entry): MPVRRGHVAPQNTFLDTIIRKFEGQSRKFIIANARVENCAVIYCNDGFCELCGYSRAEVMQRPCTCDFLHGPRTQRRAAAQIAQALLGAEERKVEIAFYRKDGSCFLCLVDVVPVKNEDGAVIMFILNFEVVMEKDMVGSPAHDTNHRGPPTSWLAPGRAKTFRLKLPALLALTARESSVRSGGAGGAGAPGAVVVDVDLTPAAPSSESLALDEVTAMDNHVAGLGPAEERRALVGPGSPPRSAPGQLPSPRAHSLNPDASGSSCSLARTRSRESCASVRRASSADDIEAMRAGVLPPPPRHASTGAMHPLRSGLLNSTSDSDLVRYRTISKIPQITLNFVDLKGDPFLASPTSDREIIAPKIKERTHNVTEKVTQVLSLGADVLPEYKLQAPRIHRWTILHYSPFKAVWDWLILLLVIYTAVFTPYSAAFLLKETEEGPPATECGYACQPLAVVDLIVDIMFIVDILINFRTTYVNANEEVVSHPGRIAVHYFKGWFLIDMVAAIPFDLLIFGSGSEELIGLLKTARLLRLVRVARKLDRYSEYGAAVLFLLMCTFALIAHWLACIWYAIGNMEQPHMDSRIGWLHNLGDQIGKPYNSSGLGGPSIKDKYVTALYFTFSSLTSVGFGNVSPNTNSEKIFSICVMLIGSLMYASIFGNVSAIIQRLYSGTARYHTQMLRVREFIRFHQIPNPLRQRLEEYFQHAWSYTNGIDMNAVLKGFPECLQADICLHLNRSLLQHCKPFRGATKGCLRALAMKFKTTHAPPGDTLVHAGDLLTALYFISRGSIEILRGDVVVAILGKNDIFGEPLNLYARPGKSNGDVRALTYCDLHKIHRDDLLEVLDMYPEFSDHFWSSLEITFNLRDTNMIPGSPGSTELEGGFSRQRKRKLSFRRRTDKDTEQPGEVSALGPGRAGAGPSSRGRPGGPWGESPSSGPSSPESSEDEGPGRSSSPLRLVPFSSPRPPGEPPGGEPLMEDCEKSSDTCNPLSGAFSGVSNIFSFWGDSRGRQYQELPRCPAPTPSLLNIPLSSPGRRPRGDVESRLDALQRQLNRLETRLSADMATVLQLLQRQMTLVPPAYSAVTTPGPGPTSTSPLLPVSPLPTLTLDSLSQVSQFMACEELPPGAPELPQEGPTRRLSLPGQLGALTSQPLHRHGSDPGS
hERG ion channel, sequence (Q12809 whole entry): as above

| Compound | IC50 (CYP2D6) | IC50 (CYP3A4) | IC50 (CYP2C19) | IC50 (CYP2C9) | IC50 (CYP1A2) | T1/2 ([1]; 5% DMSO/10% solutol in saline both routes (footnote 1)) | Bioavail, F ([1]; 5% DMSO/10% solutol in saline for both oral and intravenous routes (footnote 1)) | i.v. AUC ([1]; intravenous, 5% DMSO/10% solutol in saline (footnote 1)) | p.o. AUC ([1]; oral, 5% DMSO/10% solutol in saline (footnote 1)) | IC50 [2] | solubility (in words) [3] | solubility at 16 h ([3]; kinetic from dmso stock, pH 6.5, 16 hours, room temperature) | cardiac safety profile, hERG (in words) (hERG ion channel) | inhibition at 60 min, 30 µM (hERG) |
| --- | --- | --- | --- | --- | --- | --- | --- | --- | --- | --- | --- | --- | --- | --- |
| CC1(O)CCC(NS(=O)(=O)c2ccc(-c3ncc(Cl)cc3C#N)cc2)CC1 (centres unmarked) [HMC-N-05-A, reference compound] | > 50 µM | > 50 µM | > 50 µM | 27 µM | 36 µM | 48 min | 88% | 891 ng/mL/min | 3937 ng/mL/min |  |  |  |  |  |
| CC(=O)N1CCC(C(C)S(=O)(=O)c2ccc(-c3ccc(F)cc3F)cc2)CC1 (centres unmarked) [NASMP-17, 1-(4-(1-((2′,4′-Difluoro-[1,1′-biphenyl]-4-yl)sulfonyl)ethyl)piperidin-1-yl)ethan-1-one] |  |  |  |  |  |  |  |  |  | 4.6 µM | particularly good solubility | 77 µg/mL (≈ 189 µM) | particularly positive profile | 14% |

Further lines, with some results ahead:

| IC50 (CYP2D6) | IC50 (CYP3A4) | IC50 (CYP2C19) | IC50 (CYP2C9) | IC50 (CYP1A2) | T1/2 ([1]; 5% DMSO/10% solutol in saline both routes (footnote 1)) | Bioavail, F ([1]; 5% DMSO/10% solutol in saline for both oral and intravenous routes (footnote 1)) | i.v. AUC ([1]; intravenous, 5% DMSO/10% solutol in saline (footnote 1)) | p.o. AUC ([1]; oral, 5% DMSO/10% solutol in saline (footnote 1)) | IC50 [2] | solubility (in words) [3] | solubility at 16 h ([3]; kinetic from dmso stock, pH 6.5, 16 hours, room temperature) | Compound | cardiac safety profile, hERG (in words) (hERG ion channel) | inhibition at 60 min, 30 µM (hERG) |
| --- | --- | --- | --- | --- | --- | --- | --- | --- | --- | --- | --- | --- | --- | --- |
| > 50 µM | 33 µM | > 50 µM | 34 µM | 23 µM |  |  |  |  |  |  |  | CC1(O)CCC(NS(=O)(=O)c2ccc(-c3ccc(C#N)cc3Cl)cc2)CC1 (centres unmarked) [HMC-C-09-A, reference compound] |  |  |
| > 16 µM | 9.2 µM | 8.5 µM | 2.4 µM | > 16 µM |  |  |  |  |  |  |  | CC1(O)CCC(NS(=O)(=O)c2ccc(-c3cc(F)c(F)cc3F)cc2)CC1 (centres unmarked) [HMC-C-10-B, reference compound] |  |  |
| 9.3 µM | 12 µM | 5.1 µM | 2.7 µM | 11 µM |  |  |  |  |  |  |  | CC1(O)CCC(NS(=O)(=O)c2ccc(-c3ccc(Cl)cc3C#N)c(Cl)c2)CC1 (centres unmarked) [HMC-C-11-A, reference compound] |  |  |
